Activity calls are given as the source filed them. No cut-off for these calls is given here.
Tests used:
[1] = biological target: T1, Liver carboxylesterase (Sus scrofa, UniProt Q29550); assay: Drug metabolism in PBS assessed as porcine liver esterase mediated compound hydrolysis by measuring half life at 500 uM by UPLC method; type: ADME; settings: pig
T1 sequence (Q29550 whole entry): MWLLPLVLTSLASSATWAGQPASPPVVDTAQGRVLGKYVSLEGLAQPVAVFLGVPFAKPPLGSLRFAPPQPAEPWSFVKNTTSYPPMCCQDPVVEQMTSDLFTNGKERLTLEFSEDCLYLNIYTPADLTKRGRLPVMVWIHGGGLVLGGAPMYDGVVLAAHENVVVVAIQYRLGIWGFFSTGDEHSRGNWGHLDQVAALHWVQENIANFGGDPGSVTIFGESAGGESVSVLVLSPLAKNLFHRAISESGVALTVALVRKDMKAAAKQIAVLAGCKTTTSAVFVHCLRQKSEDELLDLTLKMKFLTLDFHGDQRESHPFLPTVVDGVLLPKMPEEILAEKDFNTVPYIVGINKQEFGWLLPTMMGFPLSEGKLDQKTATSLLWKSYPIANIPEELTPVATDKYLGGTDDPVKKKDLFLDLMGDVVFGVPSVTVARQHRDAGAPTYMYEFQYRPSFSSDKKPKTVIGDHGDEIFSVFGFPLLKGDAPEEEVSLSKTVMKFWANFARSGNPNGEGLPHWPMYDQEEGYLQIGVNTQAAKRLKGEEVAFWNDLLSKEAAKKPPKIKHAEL

[2] = Drug metabolism in Sprague-Dawley rat plasma assessed as 2-(1-acetoxypentyl)benzoic acid level at 80 umol/kg, iv measured after 1 min by LC-MS/MS analysis; type: ADME, organism-based; settings: in vivo, dose 80 µmol/kg
[3] = Drug concentration in Sprague-Dawley rat at 80 umol/kg, iv measured after 1 min by LC-MS/MS analysis; type: ADME, organism-based; settings: in vivo
[4] = Drug metabolism in Sprague-Dawley rat assessed as Sodium 2-(1-((3-methylbutanoyl)oxy)pentyl)benzothioate level at 80 umol/kg, iv measured after 1 min by LC-MS/MS analysis; type: ADME, organism-based; settings: in vivo, dose 80 µmol/kg
[5] = Drug metabolism in Sprague-Dawley rat assessed as 3-butylisobenzofuran-1(3H)-one level at 80 umol/kg, iv measured after 1 min by LC-MS/MS analysis; type: ADME, organism-based; settings: in vivo, dose 80 µmol/kg
[6] = Drug concentration in Sprague-Dawley rat plasma at 80 umol/kg, iv measured after 1 min by LC-MS/MS analysis; type: ADME, organism-based; settings: dose 80 µmol/kg
[7] = Drug metabolism in Sprague-Dawley rat plasma assessed as 3-butylisobenzofuran-1(3H)-thione level at 80 umol/kg, iv measured after 1 min by LC-MS/MS analysis; type: ADME, organism-based; settings: in vivo, dose 80 µmol/kg
[8] = Drug metabolism in Sprague-Dawley rat assessed as Sodium 2-(1-acetoxypentyl)benzothioate level at 80 umol/kg, iv measured after 1 min by LC-MS/MS analysis; type: ADME, organism-based; settings: in vivo, dose 80 µmol/kg
[9] = Cytotoxicity against […] PC12 cells upto 500 uM; type: toxicity, cell-based; settings: pc12, 500 µM
[10] = cells; type: functional, PC12; settings: Homo sapiens, PC-12
[11] = system: Mus musculus; assay: Neuroprotective activity against MCAO induced C57BL/6J mouse assessed as reduction in infarct area at 100 umol/kg measured after 24 hrs by TTC staining based analysis; type: functional; set-up: scale not given: the % may be the effect or the level left; settings: dose 100 µmol/kg
[12] = system: Mus musculus; assay: Induction of iron-sulfur cluster related genes transcriptional level in MCAO induced C57BL/6J mouse at 100 umol/kg measured after 24 hrs; type: functional, organism-based; settings: dose 100.0 µmol/kg
[13] = Downregulation of MDA level in MCAO induced C57BL/6J mouse at 100 umol/kg measured after 24 hrs (reference value: 15.1 +/- 0.5 nmol/mg); type: functional; settings: dose 100 µmol/kg
[14] = biological target: T1, Liver carboxylesterase; assay: Drug metabolism in PBS assessed as porcine liver esterase mediated H2S release at 500 uM by methylene blue assay; type: ADME; settings: pig, isolated protein
[15] = system: PC12; assay: Neuroprotective activity against ischemia/hypoxia induced cell injury in […] PC12 cells assessed as increase in cell viability at 10 to 20 uM by MTT assay; type: functional, cell-based; settings: dose 10-20 µM
[16] = system: Mus musculus; assay: Induction of iron-sulfur cluster related genes transcriptional level in MCAO induced C57BL/6J mouse at 100 umol/kg measured after 24 hrs by GSEA; type: functional, organism-based; settings: dose 100.0 µmol/kg
[17] = system: Mus musculus; assay: Downregulation of oxidative stress related genes expression in MCAO induced C57BL/6J mouse at 100 umol/kg measured after 24 hrs by GSEA; type: functional, organism-based; settings: dose 100.0 µmol/kg
[18] = system: Mus musculus; assay: Downregulation of abnormal ion channel activation related genes expression in MCAO induced C57BL/6J mouse at 100 umol/kg measured after 24 hrs by GSEA; type: functional; settings: dose 100.0 µmol/kg
[19] = organism: Mus musculus; assay: Neuroprotective activity against MCAO induced C57BL/6J mouse cerebral ischemia model assessed as appearance of high density nissl bodies in hippocampal region; type: functional, organism-based
[20] = organism: Mus musculus; assay: Neuroprotective activity against MCAO induced C57BL/6J mouse cerebral ischemia model assessed as appearance of high density nissl bodies in thalamic region; type: functional, organism-based
[21] = organism: Mus musculus; assay: Neuroprotective activity against MCAO induced C57BL/6J mouse cerebral ischemia model assessed as reduction in nuclear leakage; type: functional, organism-based
[22] = organism: Mus musculus; assay: Neuroprotective activity against MCAO induced C57BL/6J mouse cerebral ischemia model assessed as upregulation of genes related to neuroprotection by GSEA; type: functional, organism-based
[23] = organism: Mus musculus; assay: Neuroprotective activity against MCAO induced C57BL/6J mouse cerebral ischemia model assessed as upregulation of genes related to dopaminergic neuron differentiation by GSEA; type: functional, organism-based
[24] = organism: Mus musculus; assay: Neuroprotective activity against MCAO induced C57BL/6J mouse cerebral ischemia model assessed as NeuN expression by immunofluorescence assay; type: functional, organism-based
[25] = organism: Mus musculus; assay: Neuroprotective activity against MCAO induced C57BL/6J mouse cerebral ischemia model assessed as cleaved caspase-3 expression by immunofluorescence assay; type: functional, organism-based

CCCCC(OC(=O)CC(C)C)c1ccccc1C(=O)SSCC(NC(C)=O)C(=O)[O-].[Na+] (stereo not given)
half-life at 500 µM [1]: 13.2 min
Drug metabolism [2]: 41 µg/mL
Drug uptake ([3]; iv, 1 min, dose 80 µmol/kg): Not Active
Drug metabolism [4]: 201.1 µg/mL

CCCCC(OC(=O)C(C)C)c1ccccc1C(=O)SSCC(NC(C)=O)C(=O)[O-].[Na+] (stereo not given)
half-life at 500 µM [1]: 13.5 min

CCCCC1OC(=S)c2ccccc21 (stereo not given)
concentration at 1 min ([3]; Sprague-Dawley, 80 umol/kg, read-out: Drug uptake): 7500 ng/mL
Drug metabolism [5]: 1.2 µg/mL

CCCCC(OC(C)=O)c1ccccc1C(=O)SSCC(NC(C)=O)C(=O)O (stereo not given)
half-life at 500 µM [1]: 179 min
concentration at 1 min [6]: 151 µg/mL
Drug metabolism [2]: 44.4 µg/mL
Drug metabolism [7]: 34.4 µg/mL
Drug metabolism [8]: 105.9 µg/mL
Activity [9]: Non-Toxic
viability at 10 µM [10]: 86.2%
Activity [11]: 20.6%
Activity [12]: inactive
Activity [13]: 9.9 nmol/mg

CCCCC(OC(C)=O)c1ccccc1C(=O)[S-].[Na+] (stereo not given)
half-life at 500 µM [1]: 1400 min
Drug metabolism [14]: 2.8 µM
concentration at 1 min [6]: 216 µg/mL
Drug metabolism [2]: 23.6 µg/mL
Drug metabolism [7]: 35.5 µg/mL
Activity [9]: Non-Toxic
Activity [15]: Active
viability at 10 µM [10]: 92.5%
Activity [11]: 13.8%
Activity [12]: Active
Activity [16]: Active
Activity [13]: 6.3 nmol/mg
Activity [17]: Active
Activity [18]: Active
Activity [19]: Active
Activity [20]: Active
Activity [21]: Active
Activity [22]: Active
Activity [23]: Active
Activity [24]: Active
Activity [25]: Active

CCCCC(OC(C)=O)c1ccccc1C(=O)O (stereo not given)
viability at 10 µM [10]: 86.4%
Activity [11]: 20.6%
Activity [13]: 9.4 nmol/mg

CCCCC(OC(=O)CC)c1ccccc1C(=O)SSCC(NC(C)=O)C(=O)[O-].[Na+] (stereo not given)
half-life at 500 µM [1]: 20 min

CCCCC(OC(=O)C(C)C)c1ccccc1C(=O)[S-].[Na+] (stereo not given)
half-life at 500 µM [1]: 900 min

CCCCC(OC(=O)CC(C)C)c1ccccc1C(=O)[S-].[Na+] (stereo not given)
half-life at 500 µM [1]: 385 min
Drug metabolism [14]: 31 µM
